# Results taken from patent US7923465B2, “Cannabinoid receptor ligands, pharmaceutical compositions containing them, and process for their preparation” (priority 2005, dated 2011).
# Read-outs that look alike come from different tables or passages of the source.
# Experiments:
# hCB1 [1] = biological target: T1, hCB1 (Homo sapiens, UniProt P21554); assay: Antagonism of CB1 receptors expressed in CHO cells, cAMP assay against CP 55,940 (Protocol IX.1); format: cell-based; set-up: expressed in transfected cells; host or cells: CHO (h-CB1/CHO, G418-selected); settings: h-CB1/CHO cells, cAMP, vs 30 nM CP 55,940; for inhibition at 10 µM: read-out: hCB1 Antagonism
# T1 sequence (P21554 whole entry): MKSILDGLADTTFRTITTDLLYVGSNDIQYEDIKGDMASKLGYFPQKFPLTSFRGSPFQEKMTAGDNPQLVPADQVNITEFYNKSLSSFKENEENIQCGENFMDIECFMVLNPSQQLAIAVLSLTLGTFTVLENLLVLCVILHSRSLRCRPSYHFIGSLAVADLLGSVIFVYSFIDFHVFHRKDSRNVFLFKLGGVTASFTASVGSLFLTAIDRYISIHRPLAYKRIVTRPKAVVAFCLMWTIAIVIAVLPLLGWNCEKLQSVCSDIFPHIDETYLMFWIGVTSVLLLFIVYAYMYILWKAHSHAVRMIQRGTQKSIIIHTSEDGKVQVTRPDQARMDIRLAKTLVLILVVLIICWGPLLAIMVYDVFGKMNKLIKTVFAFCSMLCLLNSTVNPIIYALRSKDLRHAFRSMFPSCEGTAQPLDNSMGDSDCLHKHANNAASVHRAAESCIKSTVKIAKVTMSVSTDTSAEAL
# Procedure: (§1) IX. Assay for Determining Agonist and Antagonist Activity to CB1 and CB2 Receptors
# 1. Antagonism of CB1/CB2 Receptors Expressed in CHO Cells.
# h-CB1/CHO or h-CB2/CHO cells were grown in HAM's F12 DMEM medium (Sigma) with 10% FBS (Hyclone), 1% penicillin-streptomycin solution and 400 μg/ml of G418 (Sigma). 5000 cells were seeded per well in a 96 well plate and incubated for 24 hours at 37° C. in 5% CO2. On the day of assay, cells were washed with warm Krebs buffer containing 0.1% fatty acid free (FAF) BSA (Sigma) and re-suspended in the same buffer containing 1 mM IBMX. […] At the end of incubation, cells were lysed using lysis reagent from the cAMP estimation kit and cAMP was quantitated by the chemiluminescence method described in the manufacturer's instructions (DiscoveRX). EC50 values were calculated from dose response curves by nonlinear regression analysis using PRISM software.
# CB1 [2] = biological target: T2, CB1 (Rattus norvegicus, UniProt P20272); assay: Rat CB1 receptor binding using brain membrane, [3H]SR141716A displacement (Protocol I); set-up: CB1 receptor present in a rat brain membrane preparation; from tissue; host or cells: rat brain membrane; inhibition: dose or concentration left out as unconfirmed; settings: for inhibition: 1 h
# T2 sequence (P20272 whole entry): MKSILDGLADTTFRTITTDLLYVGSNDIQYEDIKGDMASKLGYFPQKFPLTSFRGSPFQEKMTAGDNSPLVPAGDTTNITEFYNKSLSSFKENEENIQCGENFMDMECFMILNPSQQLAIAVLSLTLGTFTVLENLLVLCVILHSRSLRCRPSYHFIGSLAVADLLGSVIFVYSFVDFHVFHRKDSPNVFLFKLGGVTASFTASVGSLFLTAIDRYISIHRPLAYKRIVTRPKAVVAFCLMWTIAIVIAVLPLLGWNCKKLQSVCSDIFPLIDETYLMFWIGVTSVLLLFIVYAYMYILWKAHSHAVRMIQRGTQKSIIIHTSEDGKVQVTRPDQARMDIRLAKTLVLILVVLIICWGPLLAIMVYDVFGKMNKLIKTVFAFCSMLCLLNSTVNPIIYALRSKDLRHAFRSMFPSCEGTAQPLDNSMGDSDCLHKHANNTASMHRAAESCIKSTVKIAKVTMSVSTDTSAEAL
# hCB1 [3] = biological target: T1, hCB1; assay: In vitro binding assay using hCB1-CHO membranes, [3H]-CP-55,940 displacement (Protocol II); set-up: expressed in transfected cells; host or cells: CHO (hCB1-CHO, generated in-house)
# Procedure: II. Protocol for In Vitro Assay Using hCB1-CHO Membranes
# The reaction was set up in a total volume of 200 μl in PEI (Poly(ethyleneimine)) (0.2%) precoated Millipore GFB (Glass Fibre-B) filter plates. 1 mM stocks of test compounds were prepared in DMSO and tested at a final concentration of 300 nM. The non-specific binding was determined by 0.5 μM CP-55, 940. […] The assay mixture (with or without the test compound) was incubated at 37° C. for 1 hour. The reaction was stopped by rapid filtration under vacuum and the radioactivity on the filters was measured by liquid scintillation counting.
# hCB2 [4] = biological target: T3, hCB2 (Homo sapiens, UniProt P34972); assay: In vitro binding assay using hCB2-CHO membranes, [3H]-CP-55,940 displacement (Protocol IV); set-up: expressed in transfected cells; host or cells: CHO (hCB2-CHO, generated in-house); settings: for % Displacement Protocol IV: hCB2-CHO membranes, [3H]-CP-55,940 displacement
# T3 sequence (P34972 whole entry): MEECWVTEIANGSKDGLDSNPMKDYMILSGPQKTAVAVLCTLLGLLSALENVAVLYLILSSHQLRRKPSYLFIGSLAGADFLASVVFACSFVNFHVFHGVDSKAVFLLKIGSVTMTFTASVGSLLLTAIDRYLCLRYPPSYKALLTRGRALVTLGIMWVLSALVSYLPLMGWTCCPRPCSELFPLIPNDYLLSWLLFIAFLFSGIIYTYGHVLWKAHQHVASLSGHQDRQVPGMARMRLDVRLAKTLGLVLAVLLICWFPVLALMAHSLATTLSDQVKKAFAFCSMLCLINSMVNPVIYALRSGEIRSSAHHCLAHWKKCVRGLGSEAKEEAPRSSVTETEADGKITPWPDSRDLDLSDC
# Outline: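 Compounds were tested at a single 300 nM final concentration for displacing 0.75 nM [3H]-CP-55,940 from hCB2-CHO membranes (1 h, 30 °C, 50 mM Tris pH 7.4, 5 mM MgCl2, 1 mM EDTA, 0.1% BSA). Filter-bound radioactivity was counted, with 0.5 μM unlabelled CP-55,940 for nonspecific binding; results are % displacement.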
# CB1 [5] = biological target: T2, CB1; assay: GTPγS binding assay, CB1 functional assay in rat cerebellar membrane (Protocol VIII); format: biochemical; set-up: 10 μg rat cerebellum membrane; from tissue; host or cells: rat cerebellum membrane, prepared in-house; settings: for Per Se % Stimulation / activation at 1 µM: GTPγS binding over basal, rat cerebellar membrane, tested at 1 uM; for % Inhibition of WIN-55212-2 induced stimulation / inhibition at 1 µM: GTPγS binding, tested at 1 uM in presence of 1 μM WIN 55,212-2; for activation at 1 µM: 1 h, read-out: Per Se % Stimulation; for inhibition at 1 µM: read-out: % Inhibition of WIN-55212-2 induced stimulation
# Outline: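 Rat cerebellar membranes (10 μg) incubated 1 h at 30 °C with 0.2 nM [35S]GTPγS, 50 μM GDP, and compound at 1 μM or 300 nM, alone or with 1 μM WIN 55,212-2, in Tris/MgCl2/EGTA/NaCl pH 7.4. Filter-bound radioactivity counted; percent stimulation calculated against basal specific binding (nonspecific defined by 10 μM GTPγS).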
# hCB2 [6] = biological target: T3, hCB2; assay: Agonism of CB2 receptors expressed in CHO cells, forskolin cAMP assay (Protocol IX.2); format: cell-based; set-up: expressed in transfected cells; host or cells: CHO (h-CB2/CHO, G418-selected)
# Procedure: as §1
# 2. Agonism of CB1/CB2 Receptors Expressed in CHO Cells
# h-CB1/CHO or h-CB2/CHO cells were grown in HAM's F12 DMEM medium (Sigma) with 10% FBS (Hyclone), 1% penicillin-streptomycin solution and 400 μg/ml of G418 (Sigma). 5000 cells were seeded per well in a 96 well plate and incubated for 24 hours at 37° C. in 5% CO2. On the day of assay, cells were washed with warm Krebs Buffer containing 0.1% fatty acid free (FAF) BSA (Sigma) and re-suspended in the same buffer containing 1 mM IBMX. Test compound or CP 55,940 as a reference compound (30 nM final concentration for CB1 testing and 10 μM of the same for CB2 testing) diluted in FFB+IBMX+Krebs buffer was added to the cells followed by forskolin addition (10 uM final concentration) and incubated for 30 minutes at room temperature. At the end of incubation, cells were lysed using lysis reagent from the cAMP estimation kit and cAMP was quantitated by chemiluminescence method described in the manufacturer's instructions (DiscoveRX). EC50 values were calculated from dose response curves by nonlinear regression analysis using PRISM software.
# [7] = rat brain membrane, [3H]SR141716A displacement, read-out: % Displacement Protocol I
# [8] = rat brain membrane, [3H]SR141716A displacement
# [9] = read-out: % Displacement Protocol I, rat brain membrane, [3H]SR141716A displacement
Structure (SMILES),melting point [°C],inhibition at 10 µM (hCB1 [1]; at 10 uM) [%],inhibition (CB1 [2]; [7]) [%],% Displacement Protocol II (hCB1 [3]) [%],% Displacement Protocol IV (hCB2 [4]) [%],Per Se % Stimulation (CB1 [5]) [%],% Inhibition of WIN-55212-2 induced stimulation (CB1 [5]) [%],% Displacement Protocol I (CB1 [2]; [8]) [%],other results
"CC(C)(C)c1ccc(NC(=O)c2nn(-c3ccc(Cl)cc3)c3c2C2CCC3C2)cc1 (stereo not drawn) [Example 219, N(3)-(4-tert-Butylphenyl)-1-(4-chlorophenyl)-4,5,6,7-tetrahydro-1H-4,7-methano-indazole-3-carboxamide]",76 to 78,33.4,33.7,,,,,,
"O=C(NN1CCCCC1)c1nn(-c2ccccc2Cl)c2c1C1CC3CC(C1)CC2C3 [Example 184, N(7)-piperidino-5-(2′-chlorophenyl)-5,6-diazatetracyclo[7.3.1.1^3,11.0^4,8]tetradeca-4(8)-6-diene-7-carboxamide]",,,,3.24,8.76,9.5,75.9,41,
"O=C(NC1CCCC1)c1nn(-c2ccc(Cl)cc2)c2c1C1CCC2C1 (stereo not drawn) [Example 212, N(3)-Cyclopentyl-1-(4-chlorophenyl)-4,5,6,7-tetrahydro-1H-4,7-methano-indazole-3-carboxamide]",176 to 178,39.1,,,,,,,activation at 1 µM (CB1 [5]): -13.8%; inhibition at 1 µM (CB1 [5]): 97.4%; inhibition (CB1 [2]; [9]): 68.4%
"CC(C)(C)NC(=O)c1nn(-c2ccc(F)cc2F)c2c1C1CCC2(C)C1(C)C (stereo not drawn) [Example 408, N(3)-tert-Butyl-1-(2,4-difluorophenyl)-7,8,8-trim ethyl-4,5,6,7-tetrahydro-1H-methano-indazole-3-carboxamide]",,,,24.93,61.92,,,,"IC50 (hCB2 [6]; h-CB2/CHO cells, cAMP, read-out: hCB2 Agonism IC50): 0.0161 µM"
"O=C(NC1CCCCC1)c1nn(-c2ccc(Cl)cc2)c2c1C1CC3CC(C1)CC2C3 [Example 106, N(7)-Cyclohexyl-5-(4-chlorophenyl)-5,6-diazatetracyclo[7.3.1.1^3,11.0^4,8]tetradeca-4(8),6-diene-7-carboxamide]",162,,,,,,,,"inhibition at 0.3 µM (hCB2 [4]; 1 h, read-out: % Displacement Protocol IV): 75.1%; activation at 1 µM (CB1 [5]): -10%; inhibition at 1 µM (CB1 [5]): 65.3%; hCB2 Agonism (hCB2 [6]; concentration not given): 0%; inhibition (CB1 [2]; [9]): 78.6%"
"O=C(NC12CC3CC(CC(C3)C1)C2)c1nn(-c2ccc(Cl)cc2)c2c1C1CC3CC(C1)CC2C3 [Example 109, N(7)-(Adamantan-1-yl)-5-(4-chlorophenyl)-5,6-diazatetracyclo[7.3.1.1^3,11.0^4,8]tetradeca-4(8)-6-diene-7-carboxamide]",,,,8.36,63.05,,,,hCB1 Antagonism (hCB1 [1]; at 10 uM): 61.64% at
"O=C(NCc1ccccc1)c1nn(-c2ccccc2)c2c1C1CC3CC(C1)CC2C3 [Example 170, N(7)-Benzyl-5-phenyl-5,6-diazatetracyclo[7.3.1.1^3,11.0^4,8]tetradeca-4(8)-6-diene-7-carboxamide]",,,,29.49,27.16,17.5,80.3,40.0,
"Cl.O=C(NNc1ccccc1)c1nn(-c2ccc(Cl)cc2)c2c1C1CC3CC(C1)CC2C3 [Example 122, N(7)-(N′-phenylamino)-5-(4-chlorophenyl)-5,6-diazatetracyclo[7.3.1.1^3,11.0^4,8]tetradeca-4(8),6-diene-7-carboxamide hydrochloride]",,40.7,,,,1.2,59.3,,inhibition (CB1 [2]; [9]): 66.4%
"O=C(NCc1ccc(F)cc1)c1nn(-c2ccc(Cl)cc2)c2c1C1CCC2C1 (stereo not drawn) [Example 226, N(3)-(4-Fluorobenzyl)-1-(4-chlorophenyl)-4,5,6,7-tetrahydro-1H-4,7-methano-indazole-3-carboxamide]",104 to 107,71,38.4,,,,,,
"O=C(NNc1ccc(F)cc1F)c1nn(-c2ccc(Cl)cc2)c2c1C1CCC2C1 (stereo not drawn) [Example 235, N(3)-[(2,4-Difluorophenyl)amino]-1-(4-chlorophenyl)-4,5,6,7-tetrahydro-1H-4,7-methano-indazole-3-carboxamide]",118 to 120,59.9,46.8,,,,,,
"O=C(NCc1ccccc1)c1nn(-c2ccc(Cl)cc2Cl)c2c1C1CC3CC(C1)CC2C3 [Example 179, N(7)-Benzyl-5-(2′,4′-dichlorophenyl)-5,6-diazatetracyclo[7.3.1.1^3,11.0^4,8]tetradeca-4(8)-6-diene-7-carboxamide]",,,,30.88,18.21,7.8,89.7,48,
"O=C(NC1CCCCC1)c1nn(-c2ccccc2Cl)c2c1C1CC3CC(C1)CC2C3 [Example 183, N(7)-cyclohexyl-5-(2-chlorophenyl)-5,6-diazatetracyclo[7.3.1.1^3,11.0^4,8]tetradeca-4(8)-6-diene-7-carboxamide]",,,,17.24,18.23,13.0,72.5,45.9,
"O=C(NN1CCCCC1)c1nn(-c2ccc(Cl)cc2Cl)c2c1C1CCC2C1 (stereo not drawn) [Example 268, N(5)-piperidino-3-(2′,4′-dichlorophenyl)-3,4-diazatricyclo[5.2.1.0^2,6]deca-2(6),4-diene-5-carboxamide]",,,41,,,,,,inhibition at 1 µM (hCB1 [1]; at 1 uM): 50.9%; activation at 1 µM (CB1 [5]): 29.1%; inhibition at 1 µM (CB1 [5]): 55.3%
